Experimental data taken from patent US9889146B2, “Benzoxaborole compounds and uses thereof” (priority 2012, dated 2018).
Converted amounts (≈) assume the structure as drawn. Read-outs that look alike come from different tables or passages of the source.

Key:
Assay type in all cases: cell-based
Enterobacteriaceae = test: organism not typed; details: Enterobacteriaceae
Klebsiella spp. (WT) = test: microbe, parasite or virus in culture; details: Klebsiella spp. (WT)
[1] = system: Citrobacter freundii (AmpC); test: microbe, parasite or virus in culture; details: Citrobacter freundii
[2] = system: Morganella morganii (AmpC); test: microbe, parasite or virus in culture; details: Morganella morganii
Providencia spp.(all) = test: microbe, parasite or virus in culture; details: Providencia spp.(all)
[3] = system: E. coli ATCC 25922 wild type and mutants; test: MIC, wild type and GSK2251052 resistant mutants; details: Escherichia coli
Summary of the method: (§1)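 MICs were determined following CLSI M7-A7 recommendations for aerobic bacteria. Strains were E. coli ATCC 25922, K. pneumoniae ATCC 13883, P. aeruginosa ATCC 27853 and six to ten laboratory-selected GSK2251052-resistant colonies of each, carrying mutations in the LeuRS editing domain.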

[4] = system: K. pneumoniae ATCC 13883 wild type and mutants; test: MIC, wild type and GSK2251052 resistant mutants; details: Klebsiella pneumoniae
Summary of the method: as §1

[5] = system: P. aeruginosa ATCC 27853 wild type and mutants; test: MIC, wild type and GSK2251052 resistant mutants; details: Pseudomonas aeruginosa
Summary of the method: as §1

[6] = system: E. coli ATCC 25922 wild type and mutants; test: MIC in M9 minimal media; details: Escherichia coli, read-out: MICs in M9 minimal media
Description: (§2) Spontaneous Resistance Frequency was determined in vitro for GSK2251052 and the resistance mutants in E. coli ATCC 25922, K. pneumoniae ATCC 13883, and P. aeruginosa ATCC 27853 strains were characterized. GSK2251052 was prepared as described in U.S. Pat. No. 7,816,344 (the entire contents of which are hereby incorporated by reference herein). LB broth, Mueller Hinton II broth (adjusted), and Difco noble agar were obtained from Becton Dickinson (Cockeysville, Md., USA). M9 minimal broth containing 1×M9 salt, 0.5 μg/ML thiamine, 1 mM MgSO4, 0.1 mM CaCl2, 2% glucose, was obtained from Teknova (Hollister, Calif., USA). Antibacterial agents ciprofloxacin, ceftazidime, chloramphenicol, gentamycin, kanamycin, polymixin B, tobramycin and trimethoprim, and amino acids were obtained from Sigma Chemicals (St. Louis, Mo., USA). Strains were obtained from ATCC (Manassas, Va., USA).
(§3) Susceptibility tests were performed following the recommendations for aerobic bacteria (M7-A7) from the Clinical and Laboratories Standards Institute (CLSI).
(§4) The aminoacyl-tRNA synthetase enzyme, LeuRS, ensures the correct amino acid, leucine, is attached to tRNA^Leu. The LeuRS synthetic active site is capable of aminoacylating tRNA^Leu with amino acids structural similar to leucine (norvaline, norleucine, isoleucine and methionine). These mischarged tRNA^Leu are hydrolyzed by the editing domain, thus preventing the deleterious incorporation of incorrect amino acids into the growing polypeptide. The laboratory generated mutants were further tested for their ability to grow in defined media with exogenously added amino acids. Norvaline and norleucine, structurally similar to leucine, were tested in M9 minimal media. […]

[7] = system: K. pneumoniae ATCC 13883 wild type and mutants; test: MIC in M9 minimal media; details: Klebsiella pneumoniae, read-out: MICs in M9 minimal media
Description: as §2, §3, §4

[8] = system: P. aeruginosa ATCC 27853 wild type and mutants; test: MIC in M9 minimal media; details: Pseudomonas aeruginosa, read-out: MICs in M9 minimal media
Description: as §2, §3, §4

[9] = system: E. coli clinical isolates from subject E. coli 1; test: GSK2251052 MIC of clinical isolates, subject E. coli 1; details: Escherichia coli, read-out: GSK2251052 MIC GSK results
Description: The E. coli and P. mirabilis strains were cultured on Trypticase Soy Agar/5% blood plates (Becton Dickinson BBL), in cation adjusted Mueller-Hinton II Broth, or in M9 minimal salts (Becton Dickinson) broth containing 0.4% glucose and 200 uM MgSO4. L-Norvaline (Sigma-Aldrich) was prepared at a concentration of 6.4 mg/ml in […], in a final volume of approx 0.5 ml, and stored at −20° C. until required.
Minimum inhibitory concentrations (MICs) were determined using the CLSI (Clinical and Laboratory Standards Institute, formerly NCCLS) recommended broth microdilution methodology [NCCLS, 2003] using defined media.

[10] = GSK2251052 breakpoint, read-out: susceptibility category of MIC90
[11] = read-out: susceptibility category of MIC90

NC[C@H]1OB(O)c2c(OCCCO)cccc21 [GSK2251052, (S)-3-aminomethyl-7-(3-hydroxy-propoxy)-3h-benzo[c][1,2]oxaborol-1-ol]
MIC90 (Enterobacteriaceae; 2029 isolates, read-out: MIC90): 1 µg/mL (≈ 4.22 µM)
susceptibility category of MIC90 (Enterobacteriaceae; [10]): < 4 µg/mL
MIC90 (Klebsiella spp. (WT); 159 isolates, read-out: MIC90): 1 µg/mL (≈ 4.22 µM)
MIC90 (Klebsiella spp. (WT); [10]): < 4 µg/mL
MIC90 [1]: 1 µg/mL (≈ 4.22 µM)
MIC90 [1, 11]: < 4 µg/mL
MIC90 [2]: 2 µg/mL (≈ 8.44 µM)
MIC90 [2, 11]: < 4 µg/mL
MIC90 (Providencia spp.(all); 68 isolates, read-out: MIC90): 1 µg/mL (≈ 4.22 µM)
susceptibility category of MIC90 (Providencia spp.(all); [10]): < 4 µg/mL
MIC ([3]; ATCC25922, E wt, leuRS mutation none, read-out: MIC): 1 µg/mL (≈ 4.22 µM)
MIC ([3]; ATCC25922, E. coli WT, read-out: GSK2251052 MIC): 1 µg/mL (≈ 4.22 µM)
MIC ([3]; ATCC25922, mutant E101, leuRS Y246H): 64 µg/mL (≈ 270 µM)
MIC ([3]; ATCC25922, mutant E102, leuRS D345G): 256 µg/mL (≈ 1080 µM)
MIC ([3]; ATCC25922, mutant E103, leuRS D345G (ditto mark)): 256 µg/mL (≈ 1080 µM)
MIC ([3]; ATCC25922, mutant E104, leuRS Y246H): 64 µg/mL (≈ 270 µM)
MIC ([3]; ATCC25922, mutant E105, leuRS D345G): 256 µg/mL (≈ 1080 µM)
MIC ([3]; ATCC25922, mutant E106, leuRS D345G): 256 µg/mL (≈ 1080 µM)
MIC ([3]; ATCC25922, mutant E107, leuRS G229S): > 256 µg/mL
MIC ([3]; ATCC25922, mutant E108, leuRS D345G): 256 µg/mL (≈ 1080 µM)
MIC ([3]; ATCC25922, mutant E109, leuRS D345G (ditto mark)): 256 µg/mL (≈ 1080 µM)
MIC ([3]; ATCC25922, mutant E110, leuRS Duplication D345 Y346): > 256 µg/mL
MIC ([4]; ATCC13883, K wt, leuRS mutation none, read-out: MIC): 1 µg/mL (≈ 4.22 µM)
MIC ([4]; ATCC13883, K. pneumoniae WT, read-out: GSK2251052 MIC): 1 µg/mL (≈ 4.22 µM)
MIC ([4]; ATCC13883, mutant K104, leuRS D345Y): > 256 µg/mL
MIC ([4]; ATCC13883, mutant K105, leuRS G229R): > 256 µg/mL
MIC ([4]; ATCC13883, mutant K107, leuRS S227F): 256 µg/mL (≈ 1080 µM)
MIC ([4]; ATCC13883, mutant K108, leuRS T248P): > 256 µg/mL
MIC ([4]; ATCC13883, mutant K109, leuRS T248P (ditto mark)): > 256 µg/mL
MIC ([4]; ATCC13883, mutant K110, leuRS V338L): 256 µg/mL (≈ 1080 µM)
MIC ([5]; ATCC27853, P wt, leuRS mutation none, read-out: MIC): 4 µg/mL (≈ 16.9 µM)
MIC ([5]; ATCC27853, P. aeruginosa WT, read-out: GSK2251052 MIC): 4 µg/mL (≈ 16.9 µM)
MIC ([5]; ATCC27853, mutant P101, leuRS T256P): 128 µg/mL (≈ 540 µM)
MIC ([5]; ATCC27853, mutant P102, leuRS T256P (ditto mark)): 32 µg/mL (≈ 135 µM)
MIC ([5]; ATCC27853, mutant P103, leuRS T256P (ditto mark)): 64 µg/mL (≈ 270 µM)
MIC ([5]; ATCC27853, mutant P104, leuRS T256P (ditto mark)): 128 µg/mL (≈ 540 µM)
MIC ([5]; ATCC27853, mutant P105, leuRS T256P (ditto mark)): 128 µg/mL (≈ 540 µM)
MIC ([5]; ATCC27853, mutant P106, leuRS V342M): > 256 µg/mL
MIC ([5]; ATCC27853, mutant P107, leuRS V342M (ditto mark)): 128 µg/mL (≈ 540 µM)
MIC ([5]; ATCC27853, mutant P108, leuRS T252P): 128 µg/mL (≈ 540 µM)
MIC ([5]; ATCC27853, mutant P109, leuRS V342M): 128 µg/mL (≈ 540 µM)
MIC ([5]; ATCC27853, mutant P110, leuRS V342M (ditto mark)): > 256 µg/mL
MIC ([6]; ATCC25922, E 101(leuRS Y246H)): 64 µg/mL (≈ 270 µM)
MIC ([6]; ATCC25922, E 102(leuRS D345G)): > 256 µg/mL
MIC ([6]; ATCC25922, E 107(leuRS G229S)): 128 µg/mL (≈ 540 µM)
MIC ([6]; ATCC25922, E. coli ATCC25922): 1 µg/mL (≈ 4.22 µM)
MIC ([7]; ATCC13883, K 104(leuRS D345Y)): > 256 µg/mL
MIC ([7]; ATCC13883, K 105(leuRS G229R)): > 256 µg/mL
MIC ([7]; ATCC13883, K 107(leuRS S227F)): 32 µg/mL (≈ 135 µM)
MIC ([7]; ATCC13883, K 108(leuRS T248P)): > 256 µg/mL
MIC ([7]; ATCC13883, K 110(leuRS V338L)): 64 µg/mL (≈ 270 µM)
MIC ([7]; ATCC13883, Klebsiella pneumoniae ATCC13883): 2 µg/mL (≈ 8.44 µM)
MIC ([8]; ATCC27853, P 101 (leuRS T256P)): 128 µg/mL (≈ 540 µM)
MIC ([8]; ATCC27853, P 106 (leuRS V342M)): > 256 µg/mL
MIC ([8]; ATCC27853, P 108 (leuRS T252P)): > 256 µg/mL
MIC ([8]; ATCC27853, P. aeruginosa ATCC27853): 4 µg/mL (≈ 16.9 µM)
MIC ([9]; 24 h, subject E. Coli 1, day 1, first line, no LeuRS change): 0.5 µg/mL
MIC ([9]; 24 h, subject E. Coli 1, day 1, second line, no LeuRS change): 0.25 µg/mL
MIC ([9]; 48 h): 16 µg/mL
MIC ([9]; 72 h): 16 µg/mL
MIC ([9]; 96 h): 16 µg/mL
